Where a SMILES comes first, the peptide text is derived from it. The star is where a group is joined. Cbz = O=C(OCc1ccccc1)*
System: Stat-1-specific proteases in PBMC extracts
Test: Effect of protease inhibitors on Stat-1 protein degradation in mixed PBMC extracts (Western blot)
Format: biochemical, human
Details: healthy control PBMC extract mixed with CFS patient PBMC extract (RNase L ratio=3.0), 37 C, 15 minutes; inhibitor 50 micromolar final concentration; anti-Stat-1 Western blot (FIG. 4)
Method: One of the two extracts used was from a healthy control (i.e., RNase L ratio<0.2; no protease present, detectable levels of Stat-1 protein). The other extract was from a patient with CFS (i.e., RNase L ratio>2.0; protease(s) present, no detectable level of Stat-1 protein).
Sixty (60) micrograms of PBMC extract from the healthy control was mixed with 60 micrograms of PBMC extract from a CFS patient and incubated at 37 C for 15 minutes in the presence of a) buffer only, b) DMSO (solvent for the protease inhibitors), c) Calpastatine, 50 micromolar final concentration, d) Calpain Inhibitor Type I, 200 micromolar final concentration, e) Calpain Inhibitor Type II, 200 micromolar final concentration, f) Caspase 3 Inhibitor Type II, 5 micromolar final concentration, or g) Proteasome Inhibitor (MG 132), 50 micromolar final concentration. All protease inhibitors above, as well as DMSO, were from Sigma Chemical Company.
After the 15 minute incubation, 2×SDS-PAGE gel sample dye was added and the sample heated to 95 C for five minutes to denature the proteins. The denatured samples were then subjected to standard SDS-PAGE using a 4 percent stacking gel and 10 percent separating gel. Transfer to PVDF membrane, Western blot with anti-Stat-1 antibody, and color development were performed exactly as described above.

**Q.** How did the “degradation of Stat-1 protein” value turn out when `CC(C)C[C@@H](C=O)NC(=O)[C@H](CC(C)C)NC(=O)[C@H](CC(C)C)NC(=O)OCc1ccccc1` [MG 132] (Cbz-Leu-Leu-Leu-aldehyde) was run?
**A.** inhibited

Reference: patent publication US7527938B2, “Methods for diagnosis and treatment of chronic immune diseases” (R.E.D. Laboratories N.V./S.A., priority 2001, dated 2009)
